Results as given in patent US8912227B1, “Bicyclic pyrrole derivatives useful as agonists of GPR120” (Janssen Pharmaceutica NV, priority 2014, dated 2014).

Legend:
Format in all cases: cell-based
[1] = biological target: T1, long form of human GPR120 (Homo sapiens, UniProt Q5NUL3); assay: Human GPR120 DiscoveRx PathHunter β-Arrestin assay, Procedure β-arrestin A; conditions: PathHunter CHO-K1 GPR120 β-Arrestin cell line, 3000 cells per well
T1 construct: host or cells: PathHunter CHO-K1 GPR120 β-Arrestin Cell Line
Text: The binding of an agonist (medium/long chain fatty acids or small molecule agonists) to the G-protein-coupled receptor GPR120 activates phospholipase C, leading to release of intracellular Ca^+2 through the generation of inositol 1,4,5-trisphosphate (InsP3 or IP3). GPR120 activation can also trigger intracellular signaling via recruitment of β-Arrestin. In the present method, agonist-induced activation of the human GPR120 receptor is monitored through the use of PathHunter CHO-K1 GPR120 β-Arrestin Cell Line engineered by DiscoveRx, as detailed below. The cell lines are designed to co-express both the ProLink/Enzyme Donor (PK)-tagged GPCR and the Enzyme […] (EA)-tagged Beta-Arrestin fusion proteins. Upon GPR120 receptor stimulation/activation, the EA-tagged β-Arrestin portion is translocated to the tagged receptor, where the two enzyme fragments are brought within close proximity. Under these conditions, these fragments can interact and form an active Beta-gal enzyme complex through Enzyme Fragment Complementation (EFC). This active Beta-gal complex can enzymatically hydrolyse the substrate to produce a detectable light signal; therefore, activation as a function of agonist concentration can be expressed as an EC50 value to determine relative compound activities. This in vitro assay therefore serves to assess compound agonist activity of the GPR120.
In Procedure β-arrestin A, the cell used were PathHunter CHO-K1 GPR120 β-Arrestin Cell Line, expressing the long form of human GPR120 (Genbank accession number NM_181745), with 3000 cells per well.
The selected CHO-K1 GPR120 β-Arrestin cells were cultured in Ham's F12 media supplemented with 10% fetal bovine serum (FBS), 1% Glutamine, 1×p/s, 800 μg/ml G418 and 300 μg/ml Hygromycin B (for selection). Cell stocks were maintained and grown in a sub-confluent state using standard cell culture procedures. The day before the experiment, the cells were harvested with non-enzymatic cell dissociation buffer and re-suspended in complete growth media at the desired concentration. A Corning 384-plate was then seeded with the proper number of cells in a volume of 25 μL, per well. The seeded plates were incubated overnight at 37° C.
On the day of the experiment, the Assay Buffer containing (a) HBSS with Ca^++ and Mg^++, (b) 20 mM HEPES, and (c) 0.1% BSA stabilizer (pH 7.4) was prepared. The growth medium was gently removed from the cell plates and 20 μL of Assay Buffer added to each well. The plate was then incubated at 37° C. for 60 mins. Test compounds were serially diluted in Assay Buffer to desired concentrations (more particularly, to one or more of the following μM concentrations: 25 μM, 12.5 μM, 6.25 μM, 3.125 μM, 1.562 μM, 0.781 μM, 0.391 μM, 0.195 μM, 0.098 μM, 0.049 μM, 0.024 μM, 0.012 μM). Five μl of compound dilution was then added to each well and the plate incubated at 37° C. for 90 mins. The detection reagents were prepared according to the manufacture's instruction. Twelve μL of the detection reagents were added to each well and the plate incubated at room temperature for 60 mins.
The plates were read on an EnVision instrument, using Protocol name: Luminescence, Plate type: 384 Costar, Measurement height: 3 mm, Measurement time: 1 s, Aperture: 384 Plate aperture. The % activity relative to the positive control was calculated using the following equation:
The % Activity values were plotted versus the concentration of test compound and fitted to a sigmoidal dose-response curve with a Hill slope=1 (fixed value) using nonlinear regression with GraphPad Prism 5.0 to calculate the EC50 values. The Fitting Equation was: Y=Bottom+(Top−Bottom)/(1+10^((LogEC50−X)*HillSlope)), where X is the log of the concentration and Y is the response.

Human GPR120 short form [2] = biological target: T2, Human GPR120 short form (Homo sapiens, UniProt Q5NUL3); assay: Human GPR120 calcium flux assay, Procedure Calcium A; conditions: HEK-293 cells expressing human GPR120 short form, 2500 cells/well, FLIPR
T2 construct: expressed in transfected cells
T2 sequence (Q5NUL3 1-361): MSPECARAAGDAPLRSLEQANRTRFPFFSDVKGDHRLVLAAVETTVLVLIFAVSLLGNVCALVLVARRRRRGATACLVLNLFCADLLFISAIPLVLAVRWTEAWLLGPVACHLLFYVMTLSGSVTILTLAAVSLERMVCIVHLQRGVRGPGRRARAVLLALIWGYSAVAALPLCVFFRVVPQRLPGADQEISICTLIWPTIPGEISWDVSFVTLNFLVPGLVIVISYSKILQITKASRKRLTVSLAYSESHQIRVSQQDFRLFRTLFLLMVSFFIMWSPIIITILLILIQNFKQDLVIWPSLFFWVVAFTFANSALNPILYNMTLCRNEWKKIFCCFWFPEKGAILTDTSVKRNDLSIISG
Text: (§1) This in vitro assay serves to assess test compound agonist activity against the short splice variant (SVS with Accession number NM_001195755.1 confirmed by sequencing data) of the GPR120 receptor. The Human Short splice variant #2 (NM_001195755.1) is missing an in-frame coding exon compared to variant 1 (the Human Long splice variant NM_181745.3), resulting in a shorter isoform (GPR120-S) lacking a 16 aa protein segment compared to isoform GPR120-L. The assay platform utilizes HEK-293 cells stably transfected to express the Human GPR120 short form. These cells are first loaded with the Ca^+2 sensitive dye, Fluo-4 NW. Upon stimulation, intracellular released Ca^+2 can bind to the dye and alter its fluorescence intensity. This increase in fluorescence signal, and thus the flux in intracellular [Ca^2+], is detected and quantitated by fluorescence imaging using a FLIPR reader. The effect of the agonist is measured as a function of concentration and used to calculate an EC50 based upon a response curve.
In this procedure 2500 cells/well were employed.
(§2) A Human GPR120 clone (Genbank accession number NM_001195755.1) was placed into the pcDNA3.1 mammalian expression vector carrying the neomycin resistance gene. A stable mammalian cell was generated by placing the above clone into a HEK293 background. Clonal cells responding to long chain fatty acids had expression levels of GPR120 confirmed by RT-qPCR. Human HEK-GPR120 cells were cultured in Dulbecco's Modified Eagle's Medium (DMEM)/F12 medium supplemented with 10% fetal bovine serum (FBS), 1% L-Glutamine and 1% penicillin/streptomycin and 0.5 mg/ml G-418. Cells were split 2 times a week to keep the cells in the log-phase growth.
(§3) In preparation for the assay, HEK cells stably transfected with Human GPR120 (2.5K cells per well in 25 uL growth medium) were seeded into 384-well plates and then incubated overnight (37° C., 5% CO2). The next day, the media was changed to 20 μl assay buffer and the cell starved for 1 h at 37° C. The dye loading solution (2× dye) was prepared using 10 ml assay buffer, 100 μl of 250 mM probenecid, 1 bottle of Component A, and 20 μl of dye in DMSO. Twenty μl of the 2× dye loading buffer was then added to each well. The plates were incubated at 37° C. for 30 min, then at room temperature for an additional 15 minutes, before performing the assay on FLIPR.
(§4) Test compounds were prepared in assay buffer (2 μl of test compound+198 μl assay buffer, final DMSO in assay plate is 0.2%) at the desired concentration, more particularly at 100 μM, 50 μM, 25 μM, 12.5 μM, 6.25 μM, 3.125 μM, 1.562 μM, 0.781 μM, 0.391 μM, 0.195 μM, 0.098 μM, 0.049 μM, 0.024 μM and 0.012 μM.
(§5) The assay was performed on a FLIPR plate reader using the following parameters. Baseline was read for 10 seconds at 1 sec intervals. The program was set to transfer 10 μL of ligand from compound plate to cell plate after baseline reading. Aspiration was executed at: 10 μl/sec speed, 4.6 μl height; Dispensing was executed at: 30 μl/sec speed, 45 μl height. After compound addition, each well was read for 300 sec, with measurements collected at 1 sec intervals.
(§6) The kinetic data from the FLIPR was based upon a 5 minute window for data collection. The fluorescence of each sample well was used for individual calculations of a normalized RFU value, which was defined as maximum response minus the minimum response. The normalized fluorescence reading (RFU) was calculated as follows: RFU=Fmax−Fmin
(§7) The data were fitted to a sigmoidal dose-response curve with a variable Hill slope (<2) using nonlinear regression with GraphPad Prism 5.0 to calculate the EC50 values. The Fitting Equation was: Y=Bottom+(Top−Bottom)/(1+10^((LogEC50−X)*HillSlope)), where X is the log of the concentration and Y is the response.

Human GPR120 short form [3] = biological target: T2, Human GPR120 short form; assay: Human GPR120 calcium flux assay, Procedure Calcium B; conditions: HEK-293 cells expressing human GPR120 short form, 4200 cells/well, FLIPR
Text: as §1
In this procedure 4200 cells/well were employed.
as §2, §3, §4, §5, §6, §7

T1 sequence (Q5NUL3 1-377 isoform Q5NUL3-1): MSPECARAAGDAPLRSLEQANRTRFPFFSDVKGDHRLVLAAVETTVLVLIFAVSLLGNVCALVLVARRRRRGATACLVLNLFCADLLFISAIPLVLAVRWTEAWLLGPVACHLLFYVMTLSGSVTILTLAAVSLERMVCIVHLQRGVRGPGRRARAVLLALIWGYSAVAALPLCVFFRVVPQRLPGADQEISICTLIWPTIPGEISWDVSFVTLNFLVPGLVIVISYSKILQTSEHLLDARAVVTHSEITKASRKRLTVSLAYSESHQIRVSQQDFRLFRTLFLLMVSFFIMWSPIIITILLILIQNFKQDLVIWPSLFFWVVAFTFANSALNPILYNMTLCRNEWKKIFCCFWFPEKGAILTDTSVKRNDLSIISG
T1 sequence (P32121 whole entry partner): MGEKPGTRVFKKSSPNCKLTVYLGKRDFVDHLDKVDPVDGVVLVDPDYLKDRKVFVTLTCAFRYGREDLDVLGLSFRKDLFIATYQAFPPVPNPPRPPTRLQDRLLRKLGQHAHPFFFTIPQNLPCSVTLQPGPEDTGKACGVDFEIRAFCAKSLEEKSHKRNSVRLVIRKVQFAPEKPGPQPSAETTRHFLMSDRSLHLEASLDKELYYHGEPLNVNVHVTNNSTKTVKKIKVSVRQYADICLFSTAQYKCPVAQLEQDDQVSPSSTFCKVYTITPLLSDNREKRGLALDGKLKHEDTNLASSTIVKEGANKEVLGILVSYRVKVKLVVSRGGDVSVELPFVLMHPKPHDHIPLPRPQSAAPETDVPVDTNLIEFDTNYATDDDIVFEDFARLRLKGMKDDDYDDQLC

Compound | EC50 [1] [nM] | EC50 (Human GPR120 short form [2]) [nM] | EC50 (Human GPR120 short form [3]) [nM]
Cc1c(CCC(=O)O)ccc(OCc2c(Cl)ccn2-c2ccc(Cl)cc2)c1C [Compound 8, 3-(4-{[3-Chloro-1-(4-chlorophenyl)-1H-pyrrol-2-yl]methoxy}-2,3-dimethylphenyl)propanoic acid] | 1000 | 528 | 173
O=C(O)CCc1ccc(OCc2c(Br)ccn2-c2ccc(Cl)cc2)c(F)c1F [Compound 6, 3-(4-{[3-Bromo-1-(4-chlorophenyl)-1H-pyrrol-2-yl]methoxy}-2,3-difluorophenyl)propanoic acid] | 730 | 819 | 161
Cc1ccc(-n2ccc(C(F)(F)F)c2COc2c(F)cc(CCC(=O)O)cc2F)cn1 [Compound 49, 3-(3,5-Difluoro-4-{[1-(6-methylpyridin-3-yl)-3-(trifluoromethyl)-1H-pyrrol-2-yl]methoxy}phenyl)propanoic acid] | 1240 | 870 | 289
CCc1ccc(-n2ccc(C(F)(F)F)c2COc2ccc(CCC(=O)O)c(F)c2F)cn1 [Compound 58, 3-(4-[[1-(6-ethylpyridin-3-yl)-3-(trifluoromethyl)-1H-pyrrol-2-yl]methoxy]-2,3-difluorophenyl)propanoic acid] | 932 | 882 | 162
Cc1c(CCC(=O)O)ccc(OCc2c(C(F)(F)F)ccn2-c2ccc(Cl)cc2)c1C [Compound 15, 3-(4-{[1-(4-Chlorophenyl)-3-(trifluoromethyl)-1H-pyrrol-2-yl]methoxy}-2,3-dimethylphenyl)propanoic acid] | 1100 | 993 | 88
O=C(O)CCc1cc(F)c(OCc2c(C(F)(F)F)ccn2-c2ccccc2)c(F)c1 [Compound 38, 3-(3,5-difluoro-4-((1-phenyl-3-(trifluoromethyl)-1H-pyrrol-2-yl)methoxy)phenyl)propanoic acid] | 678 | 450 | 101

Now those with a lower EC50 [1], led by results:

EC50 [1] [nM] | EC50 (Human GPR120 short form [2]) [nM] | EC50 (Human GPR120 short form [3]) [nM] | Compound
357 | 402 | 117 | CCc1ccc(-n2ccc(C(F)(F)F)c2COc2c(F)cc(CCC(=O)O)cc2F)cc1 [Compound 32, 3-(4-[[1-(4-ethylphenyl)-3-(trifluoromethyl)-1H-pyrrol-2-yl]methoxy]-3,5-difluorophenyl)propanoic acid]
201 | 507 | 63 | OCCCc1cc(F)c(OCc2c(C(F)(F)F)ccn2-c2ccccc2)c(F)c1 [Compound 35, 3-(3,5-difluoro-4-[[1-phenyl-3-(trifluoromethyl)-1H-pyrrol-2-yl]methoxy]phenyl)propan-1-ol]
25 | 427 | 246 | OCCCc1cc(F)c(OCc2c(C(F)(F)F)ccn2-c2ccc(Br)cc2)c(F)c1 [Compound 30, 3-(4-[[1-(4-bromophenyl)-3-(trifluoromethyl)-1H-pyrrol-2-yl]methoxy]-3,5-difluorophenyl)propan-1-ol]
99 | 621 | 43 | OCCCc1cc(F)c(OCc2c(C(F)(F)F)ccn2-c2ccc(Cl)cc2)c(F)c1 [Compound 46, 3-(4-{[1-(4-Chlorophenyl)-3-(trifluoromethyl)-1H-pyrrol-2-yl]methoxy}-3,5-difluorophenyl)propan-1-ol]
221 | 641 | 108 | COc1ccc(-n2ccc(C(F)(F)F)c2COc2c(F)cc(CCC(=O)O)cc2F)cc1 [Compound 28, 3-(3,5-Difluoro-4-{[1-(4-methoxyphenyl)-3-(trifluoromethyl)-1H-pyrrol-2-yl]methoxy}phenyl)propanoic acid]
120 | 444 | 145 | CCc1ccc(-n2ccc(C(F)(F)F)c2COc2ccc(CCC(=O)O)c(C)c2C)cc1 [Compound 36, 3-(4-[[1-(4-ethylphenyl)-3-(trifluoromethyl)-1H-pyrrol-2-yl]methoxy]-2,3-dimethylphenyl)propanoic acid]
592 | 1040 | 164 | Cc1c(CCC(=O)O)ccc(OCc2cccn2-c2ccc(Br)cc2)c1C [Compound 3, 3-(4-{[1-(4-Bromophenyl)-1H-pyrrol-2-yl]methoxy}-2,3-dimethylphenyl)propanoic acid]
